{"source": "patent EP0089900B1", "about": "“New N-((2-oxo-1-pyrrolidinyl)acetyl)piperazines, the methods of producing such new compounds and their salts as well as pharmaceutical preparations for therapeutic use containing these compounds or salts” (PRODES S.A., priority 1982, dated 1983)", "key": {"anesthetized dogs": {"test_system": "anesthetized dogs", "assay": "Electromagnetic blood flow measurement (vertebral/cerebral blood flow)", "type": "in vivo", "conditions": "vertebral blood flow, administration via saphenous vein", "protocol": "After orotraqueal intubation, artificial respiration with normal air was instituted using a Manley Pul- movent respirator. The correct ventilation of the dogs was checked after all the surgical procedures by determining the pO2, pCO2 and pH in arterial blood samples, as well as several times during the experiment by means of an Astrup apparatus. Blood pressure (4) was measured in left saphenous artery by means of a Bell & Howell pressure transducer, and the heart rate by means of a Beckman ECG device.\nRecordings were made on an ink-writing Beckman polygraph. Left saphenous vein and right saphenous artery were canulated with polyethylene catheters for drug administration and blood collection respectively.\nVertebral blood flow was measured by a non-cannulating electromagnetic flowmeter (Carolina Medical Electronics) placed in the vertebral artery.\nThe Carolina digital flowmeter was connected to an Omniscribe Houston Instruments plotter.\nPiracetam and nicotinic acid were used as control drugs."}, "animals [1]": {"test_system": "animals", "assay": "Protection against lethality: hypoxia-hypobara (decompression), survival time", "type": "in vivo"}, "mouse": {"test_system": "mouse", "assay": "Protection against lethality: quick decapitation, gasping time", "type": "in vivo", "conditions": "gasping time after decapitation of mouse", "source_text": "The second trial is the quick decapitation of mouse. The head has a typical mandibular movement, known as gasping, as searching the breathing air."}, "animals [2]": {"test_system": "animals", "assay": "Protection against lethality: anoxia by CNK, survival time", "type": "in vivo"}, "Acute toxicity LD50": {"assay": "Acute toxicity LD50", "conditions": "in vivo; species and route not given"}}, "data": [{"smiles": "NC(=O)CN1CCCC1=O", "note": "[(2-oxo-1-pyrrolidinyl)acetamide, reference compound]", "values": [{"measurement": "effect", "setting": "anesthetized dogs; no dose given", "value": "No effect"}, {"measurement": "hypoxia hypobara", "setting": "animals [1]; dose 1000 mg/kg", "value": "No effect"}, {"measurement": "gasping", "setting": "mouse; dose 1000 mg/kg", "value": "No effect"}, {"measurement": "anoxia by CNK", "setting": "animals [2]; dose 1000 mg/kg", "value": "No effect"}]}, {"smiles": "O=C1NC(=O)C(c2ccccc2)(c2ccccc2)N1", "note": "[Diphenylhydantoine, reference compound]", "values": [{"measurement": "hypoxia hypobara", "setting": "animals [1]; dose 100 mg/kg", "value": "Active"}, {"measurement": "anoxia by CNK", "setting": "animals [2]; dose 100 mg/kg", "value": "Active"}]}, {"smiles": "O=C(CN1CCCC1=O)N1CCN(CC=Cc2ccccc2)CC1", "note": "[N-[(2-oxo-1-pyrrolidinyl)-acetyl]-N'-cinnamylpiperazine]", "values": [{"measurement": "effect", "setting": "anesthetized dogs; dose 2,5 mg/kg", "value": "Active"}, {"measurement": "hypoxia hypobara", "setting": "animals [1]; dose 300 mg/kg", "value": "Active"}, {"measurement": "gasping", "setting": "mouse; dose 300 mg/kg", "value": "Active"}, {"measurement": "anoxia by CNK", "setting": "animals [2]; dose 300 mg/kg", "value": "Active"}, {"measurement": "LD50", "setting": "Acute toxicity LD50", "value": 1400, "unit": "mg/kg"}]}, {"smiles": "COc1ccc(CN2CCN(C(=O)CN3CCCC3=O)CC2)cc1", "note": "[N-[(2-oxo-1-pyrrolidinyl)acetyl]-N'-(p-methoxybenzyl)piperazine]", "values": [{"measurement": "effect", "setting": "anesthetized dogs; dose 1 mg/kg", "value": "Active"}, {"measurement": "hypoxia hypobara", "setting": "animals [1]; dose 250 mg/kg", "value": "Active"}, {"measurement": "gasping", "setting": "mouse; dose 250 mg/kg", "value": "Active"}, {"measurement": "anoxia by CNK", "setting": "animals [2]; dose 250 mg/kg", "value": "No effect"}, {"measurement": "LD50", "setting": "Acute toxicity LD50", "value": 1110, "unit": "mg/kg"}]}, {"smiles": "C=CCN1CCN(C(=O)CN2CCCC2=O)CC1", "note": "[N-[(2-oxo-1-pyrrolidinyl)acetyl]-N'-allylpiperazine]", "values": [{"measurement": "effect", "setting": "anesthetized dogs; dose 2,5 mg/kg", "value": "Active"}, {"measurement": "hypoxia hypobara", "setting": "animals [1]; dose 500 mg/kg", "value": "Active"}, {"measurement": "gasping", "setting": "mouse; dose 500 mg/kg", "value": "Active"}, {"measurement": "anoxia by CNK", "setting": "animals [2]; dose 500 mg/kg", "value": "Active"}, {"measurement": "LD50", "setting": "Acute toxicity LD50", "value": 4000, "unit": "mg/kg"}]}, {"smiles": "O=C(O)c1cccnc1", "note": "[Nicotinic acid, reference compound]", "values": [{"measurement": "effect", "setting": "anesthetized dogs; no dose given", "value": "No effect"}]}]}
